This is an account of results in patent US11292803B2, “Bioreducible N-oxide-based probes for imaging of hypoxia” (THE BOARD OF TRUSTEES OF THE UNIVERSITY OF ILLINOIS, priority 2018, dated 2022).

The nature of data set [1]: pH dependence of absorbance and emission spectra. It is filed as physicochemical. Particulars: buffers pH 4.8 to 12.0. Here is the method:
FIG. 13. (a) Absorbance and (b) fluorescence spectra of HyP-1 (2 μM) in 20 mM BRB buffers containing 50% v/v EtOH (pH range 4.8-12.0).
FIG. 14. (a) Absorbance and (b) fluorescence spectra of red-HyP-1 (2 μM) in 20 mM BRB buffers containing 50% v/v EtOH (pH range 4.8-12.0).
In addition to Fe(II), the response of HyP-1 to a variety of alkali, alkaline earth and transition metals was also determined. […] To further evaluate the stability of HyP-1, a 10 μM solution of the probe was exposed to ambient light and temperature for up to 5 days. Additionally, a 10 μM solution of HyP-1 supplemented with human plasma was incubated at 37° C. for 3 hours. […] As mentioned previously, a major limitation of 2-nitroimidazole-based hypoxia probes is their susceptibility to oxygen-independent reduction via two-electron processes, such as by bacterial nitroreductases. […] Finally, the photostability of both HyP-1 and red-HyP-1 was evaluated via continuous PA image acquisition at 770 nm over the course of 1 hour.
0.1 M potassium phosphate buffer (pH 7.4) was prepared by combining stock solutions of KH2PO4 (1 M, 0.990 mL) and K2HPO4 (1 M, 4.010 mL) and diluting to a final volume of 50 mL. […] Fine adjustments to pH were made via addition of 0.1 M HCl or 0.1 M NaOH. pH values were determined using a Mettler-Toledo SevenCompact pH meter calibrated using pH 4.0, 7.0 and 10.0 standard buffers at 25° C.

Data set [2] has as its system CYP450-rich rat liver microsomes. The procedure: FIG. 4. […] (a) Representative PA image (770 nm) of reaction mixtures incubated under normoxic or hypoxic conditions for 2 h, then quenched with an equal volume of acetonitrile. Dashed lines indicate positioning of FEP tubes. (b) Change in PA signal (770 nm) produced after 2 h incubation of HyP-1 (10 μM) with rat liver microsomes (RLM) (200 μg/mL) and NADPH (50 μM) in normoxic and hypoxic conditions (n=3). (c) Ratiometric fluorescence turn-on after 2 h incubation of HyP-1 (2 μM) with RLM ([…]) and NADPH (50 μM) in normoxic or hypoxic conditions (n=3). (d) Normalized fluorescent turn-on after 1 h hypoxic incubation of HyP-1 (2 μM) with RLM (100 μg/mL) and NADPH (50 μM) under various conditions. Statistical significance represents a comparison to the hypoxic control (n=6). Results with error bars are represented as mean±SD. **p<0.01, ***p<0.001, ****p<0.0001.
The responsiveness of HyP-1 to hypoxia was first evaluated in vitro via fluorescence by incubating HyP-1 with CYP450-rich rat liver microsomes under atmospheric (normoxic) and oxygen-deprived (hypoxic) conditions. […] The PA response of HyP-1 under identical conditions was evaluated by quenching the reaction mixtures with an equal volume of acetonitrile and transferring the solutions into fluorinated ethylene propylene (FEP) tubes, which were inserted into the centre of a 2 cm thick agarose-based tissue-mimicking phantom.
For hypoxic assays only, cuvettes were sealed with septa, then evacuated and filled with N2 (×3) prior to use. Potassium phosphate buffer (0.1 M, pH 7.4) and NADPH (0.5 mM) were degassed with N2 for 30 minutes. For all assays, phosphate buffer (889 μL) rat liver microsomes (200 μg/mL) and HyP-1 (1 μL, 2 mM in DMSO) were added to the cuvette and pre-incubated at 37° C. for 5 minutes. NADPH (100 μL) was added and incubation continued with fluorescence spectra acquisition occurring at the indicated time points. Spectra were acquired according to the following parameters: λex=672, emission range=685-800 nm and λex=750, emission range=760-900 nm. For BIPY and DPI experiments, the compounds were added from stock solutions (1 M BIPY in DMSO and 50 mM DPI in deionized water) following the 5 minute preincubation, and the buffer volume was adjusted such that the total volume in the cuvette was equal to 1 mL. Deactivated microsomes were prepared by heating in a 45° C. water bath for 30 minutes.

Data set [3] can be described thus: Photophysical characterization (absorbance, emission, extinction coefficient, quantum yield). It is filed as physicochemical. To be noted: Table 2.
Test in data set [4]: as above
Type of data set: physicochemical. To be noted: for ΦF / ε / λabs / λem: measured in CHCl3 (Table 1). The procedure: Having established an effective synthetic route, attention was turned to the photophysical characterization of HyP-1 and red-HyP-1 (Table 1). HyP-1 has an absorbance maximum at 670 nm and corresponding emission maximum at 697 nm (FIG. 3a). The extinction coefficient (ε) and quantum yield (ΦF) were measured to be 1.5×10^4 cm^−1 M^−1 and 0.33 respectively. Red-HyP-1, on the other hand, has absorbance and emission maxima at 760 nm and 798 nm, respectively.
4-Aminoacetophenone was purchased from AK Scientific. Ethyl iodide, DIPEA, K2CO3, KOH, Na2SO4 and NH4OAc were purchased from Oakwood Chemicals. Benzaldehyde, BF3×OEt2, BIPY, DPI, DMSO, m-CPBA, nitroreductase and rat liver microsomes were purchased from Sigma Aldrich. Nitromethane was purchased from Alfa Aesar. Anaero-Indicators, AnaeroPacka anaerobic gas generators, acetonitrile, n-BuOH, CH2Cl2, EtOAc and Hexanes were purchased from Fisher Scientific. CDCl3 was purchased from Cambridge Isotopes Laboratory. Agarose LE was purchased from Gold Biotechnology. NADPH was purchased from EMD Millipore. All chemicals were used as purchased without further purification. Fluorinated ethylene propylene (FEP) tubing (wall thickness 0.01″, inner diameters 0.08″ and 0.12″) were purchased from McMaster-Carr. Thin-layer chromatography (TLC) was performed using glass-backed TLC plates coated with silica gel containing an UV254 fluorescent indicator (Macherey-Nagel). Flash chromatography was performed with 230-400 mesh silica gel P60 (SiliCycle Inc). UV-visible spectra were recorded on a Cary 60 spectrometer. Fluorescence spectra were recorded on a QuantaMaster-400 scanning spectrofluorometer using micro fluorescence quartz cuvettes (Science Outlet). NMR spectra were taken using Bruker or Varian 500 MHz spectrometers at 25° C. High-resolution mass spectra were acquired using Waters Q-Tof Ultima ESI and Waters Synapt G2-Si ESI/LC-MS spectrometers. Cellular imaging was performed using an EVOS FL cell imaging system. In vivo Fluorescence imaging was performed using an IVIS Spectrum CT live-animal imaging system (Perkin-Elmer, USA). PA imaging was performed using an Endra Nexus 128 photoacoustic tomography system (Ann Arbor, Mich., USA).

With `CC[N+]([O-])(CC)c1ccc(-c2cc(-c3ccccc3)c3n2[B-](F)(F)[N+]2=C(c4ccc(OC)cc4)C=C(c4ccccc4)C2=N3)cc1` [HyP-1, 4-(5,5-difluoro-7-(4-methoxyphenyl)-1,9-diphenyl-5H-5λ^4,6λ^4-dipyrrolo[1,2-c:2′,1′-f][1,3,5,2]triazaborinin-3-yl)-N,N-diethylaniline oxide], the “pH dependence of absorbance and emission spectra” value in data set [1] is recorded as “no significant pH dependence”. In addition, in data set [2], the “conversion by heat-inactivated rat liver microsomes” value is “converted to red-HyP-1”. Besides, in data set [3], the Φ is 0.33, the ε is given as 1.5 × 10^4 M^−1 · cm^1 and the λabs worked out at 670 nm. Also, in data set [4], the absorbance maximum came out at 670 nm, the “decrease in quantum yield on conversion of HyP-1 to red-HyP-1” value was 2.2 fold, the emission maximum is on record as 697 nm and the “extinction coefficient (ε)” value is 15000 cm⁻¹ M⁻¹. In data set [4], the “increase in extinction coefficient on conversion of HyP-1 to red-HyP-1” value is 3.6 fold, the “quantum yield (ΦF)” value is given as 0.33, the “shift in absorbance on conversion of HyP-1 to red-HyP-1” value is 90 nm and the ΦF came to 0.33. For the same compound, in data set [4], the ε was 1.4 × 10^4 M^−1 cm^1, the λabs is recorded as 670 nm and the λem worked out at 697 nm.

Consider `CCN(CC)c1ccc(-c2cc(-c3ccccc3)c3n2[B-](F)(F)[N+]2=C(c4ccc(OC)cc4)C=C(c4ccccc4)C2=N3)cc1` [Red-HyP-1, 4-(5,5-difluoro-7-(4-methoxyphenyl)-1,9-diphenyl-5H-5λ^4,6λ^4-dipyrrolo[1,2-c:2′,1′-f][1,3,5,2]triazaborinin-3-yl)-N,N-diethylaniline], for which the “pH dependence of absorbance and emission spectra” value in data set [1] is reported as “no significant pH dependence”. Also, the emission maximum in data set [2] (authentic solution, as RLM reaction mixture (aqueous buffer)) is on record as 785 nm. In data set [3], the Φ is 0.11, the ε is listed as 5.4 × 10^4 M^−1 · cm^1 and the λabs turned out to be 760 nm. Also, in data set [4], the absorbance maximum worked out at 760 nm, the emission maximum was 798 nm, the “extinction coefficient (ε)” value turned out to be 54000 cm⁻¹ M⁻¹ and the “quantum yield (ΦF)” value is given as 0.15. In data set [4], the ΦF came to 0.15, the ε is recorded as 5.4 × 10^4 M^−1 cm^1, the λabs turned out to be 760 nm and the λem was found to be 798 nm.
